Laboratory results taken from patent US8901317B2, “Tryptamine derivatives, their preparation and their use in gastropathy” (Council of Scientific & Industrial Research, priority 2010, dated 2014).

Assays:
[1] = test system: indomethacin-induced gastric mucosal injury; assay: Healing effect on indomethacin-induced gastric damage; format: in vivo, Sprague-Dwaley rats; conditions: 50 mg kg^−1 i.p. 4 hrs after indomethacin 48 mg kg^−1
Description: Gastric mucosal injury was first induced with indomethacin treatment at a dose of 48 mg kg^−1. After 4 hrs of the induction of mucosal injury, some of the animals were divided into two different groups (n=6), i.e., auto healing and SEGA-induced healing. This time point was referred as ‘0’ hr of healing. At this point of time, in the SEGA-induced healing group, SEGA was administered (i.p) at the dose of 50 mg kg^−1 (this dose was selected from the dose-response curve). The animals, which were not treated with SEGA and received only indomethacin, served as the auto healing group. Starting from 0 hr, the stomach was dissected out from all groups at the intervals of 2 hrs, 4 hrs and 8 hrs respectively for measuring ulcer index as described (Maity, P.; et al. J. Biol. Chem. 283:14391-14401; 2008) and histological studies.

rats = assay: Toxicity (death) after injection in rats; format: in vivo; conditions: conclusion from in vivo experiments
[2] = test system: Mitochondrial transmembrane potential (ΔΨm); assay: Mitochondrial transmembrane potential (JC-1); format: in vivo, rats; conditions: indomethacin, diclofenac; pretreatment
Description: Mitochondrial transmembrane potential (ΔΨm) was measured as described (Maity, P.; et al. J. Biol. Chem. 284:3058-3068; 2009, Maity, P.; et al. J. Biol. Chem. 283:14391-14401; 2008, Maity, P.; et al. J. Pineal Res. 46:314-323; 2009). Mitochondria were isolated from gastric mucosal scraping using Mitoisolation kit (Biochain) as described above. Equal amount of mitochondria (25 μg) from each group (control, indomethacin, diclofenac and SEGA pre-treated indomethacin, diclofenac treated) was taken in 100 μl of JC-1 assay buffer (100 mM MOPS, pH 7.5, containing 550 mM KCl, 50 mM ATP, 50 mM MgCl2, 50 mM sodium succinate, 5 mM EGTA) and were incubated in dark with JC1 (300 nM) for 15 min at 25° C. The fluorescence of each sample was measured in a Hitachi F-7000 fluorescence spectrophtometer (excitation 490 nm, emission 530 nm for JC-1 monomer and emission 590 nm for JC-1 aggregates). ΔΨm was expressed as fluorescence ratio of 590 nm/530 nm.

free iron = assay: Free iron (Phen Green SK); format: cell-based, rat; conditions: in vitro cultured cell
Description: Isolated mucosal cells from both control and indomethacin-treated cultured gastric mucosa were used for free iron localization using Phen Green SK, an iron-sensitive fluorescence probe following the protocol as described in the product catalogue (Maity, P.; et al. J. Biol. Chem. 284:3058-3068; 2009). Cells were first incubated with Phen Green SK (20 μm) for 15 min at 37° C. in the dark. After the incubation, cells were washed with HBSS and used for fluorescence microscopy (Leica, DM-2500, Leica Microsystems). Staining of pheen Green SK was visualized using green filter.

caspase-9 = assay: Caspase-9 activity in gastric mucosal tissue; format: in vivo, rats; conditions: gastric mucosa
Description: From cytosolic fraction of gastric mucosal tissues, caspase-9 and caspse-3 activities were measured using commercially available kit (Biovision, Mountain View, Calif., USA and Sigma respectively). In brief, the gastric mucosa was homogenized in caspase lysis buffer (provided with the respective kit). The homogenate was centrifuged at 16,000×g for 15 min. The supernatant was collected and mixed with 50 μl of 2× reaction buffer (provided with the respective kit). This was followed by addition of the substrates: […] (200 μM final concentration) for caspase-3 and LEHD-pNA (200 μM final concentration) for caspase-9. The mixture was incubated at 37° C. for 1 hr and absorbance was taken at 405 nm (Maity, P.; et al. J. Biol. Chem. 284:3058-3068; 2009, Maity, P.; et al. J. Biol. Chem. 283:14391-14401; 2008, Maity, P.; et al. J. Pineal Res. 46:314-323; 2009).

In the case of O=C(NCCc1c[nH]c2ccc(O)cc12)c1cc(O)c(O)c(O)c1 [Compound 3a, 3,4,5-trihydroxy-N-(2-(5-hydroxy-1H-indol-3-yl)ethyl)benzamide], the “healing of already damaged gastric mucosa (ulcer index)” value [1] is reported as “accelerates the healing process”, the toxicity in rats (rats) is reported as “nontoxic molecule” and the “mitochondrial membrane potential (fluorescence ratio 590 nm/530 nm, JC-1)” value [2] is reported as “restores all the NSAIDs-induced mitochondrial dysfuctions”. The “intramitochondrial iron chelation (Phen Green SK)” value (free iron) was “chelates the intramitochondrial iron” and the “activation of caspase-9 during indomethacin treatment” value (caspase-9) was “prevents the activation of caspase-9”.
